Measurements taken from EP0721774A2, “Anti-microbial compositions” (UNILEVER N.V., priority 1994, dated 1996).

How the values were obtained:
S.sanguis = assay: Minimum inhibitory concentration (MIC), spot dilution on lawned SDM agar plates; type: cell-based, Streptococcus sanguis
Experimental: (§1) The minimum inhibitory concentrations (MICs) of these peptides were determined as follows: Organisms were subcultured from BHIS agar into BHI broth and incubated at 37°C for 2 days. They were then diluted 1/100 in fresh broth and flooded onto pre-dried SDM agar plates. Excess culture was removed by pipetting. Plates were then allowed to dry at room temperature. The various synthesised peptides were dissolved in sterile water at a concentration of 1 %. Doubling dilutions, in water, were carried out down to 0.03 %. 15 µl of each dilution was spotted onto the lawned cultures, allowed to dry and then the plates were incubated at 37°C for 2 days. Plates were then read for zones of inhibition. The MIC was taken as the lowest dilution still causing visible growth inhibition.
(§2) All organisms were routinely grown on supplemented Brain Heart Infusion agar (Difco) and when appropriate subcultured into Brain Hearth Infusion broth (Difco). For MIC assays a chemically defined solid medium (SDM) was used^(5).
Streptococcus sanguis strains were all clinical isolates from the plaque of panellists in ongoing oral ecology studies.

S.salivarius = assay: as above; type: cell-based, Steptococcus salivarius
Experimental: as §1, §2
Steptococcus salivarius strans were all wild plaque isolates from oral ecology studies.

Actinomyces = assay: as above; type: cell-based
Experimental: as §1, §2
Actinomyces 12/2, 69A and 41A were plaque isolates from oral ecology studies.

S.mutans = assay: as above; type: cell-based, Streptococcus mutans
Experimental: as §1, §2
The organisms used were the following: Streptococcus mutans strains were clinical isolates, from the plaque of panellists in oral ecology studies. […] SM11060 belonged to serotype f and SM10919 belonged to serotype g. Strain SMB13 (serotype d) was supplied by PHLS, Porton Down.

C. albicans = settings: compared among histatins -1, -3 and -5; cited from earlier work
Lactobacilli = assay: Minimum inhibitory concentration (MIC), spot dilution on lawned SDM agar plates; type: cell-based
Experimental: as §1, §2
Lactobacilli were from the in house Colworth Microbial Culture Collection. SB115 and SB116 were L.casei var. rhamnosus, SB82 had been classified as L.plantarum, SB83 and SB85 were Lactobacillus sp. and SB 9 was L.casei.

Candida = assay: as above; type: cell-based
Experimental: as §1, §2
Candida strains 83 and 41 were isolated from oral ecology studies.

For Histatin-5, which MIC (S.sanguis; strain 6/9) is on record?
The MIC was “growth stimulated”.

What about the MIC (S.sanguis; strain 10/23) of the same substance?
Its MIC is “growth stimulated”.

And the MIC (S.sanguis; strain SS209)?
Its MIC is “growth stimulated”.

What about the MIC (S.salivarius; strain 2/7) of the same substance?
Its MIC is “growth stimulated”.

And the MIC (S.salivarius; strain 2/27)?
The MIC was “growth stimulated”.

And the MIC (S.salivarius; strain 14/9)?
The MIC was “growth stimulated”.

And the MIC (Actinomyces; strain 10A)?
The MIC was 1.0%.

And the MIC (Actinomyces; strain 11A)?
Its MIC is 0.5%.

What about the MIC (Actinomyces; strain 16A) of the same substance?
The MIC was “growth stimulated”.

And the MIC (Actinomyces; strain 41A)?
The MIC was 1.0%.

What about the MIC (Actinomyces; strain 69A) of the same substance?
Its MIC is “growth stimulated”.

And the MIC (Actinomyces; strain 71A)?
Its MIC is 0.5%.

What about the MIC (S.mutans; strain SM1dg) of the same substance?
The MIC was 1.0%.

What about the MIC (S.mutans; strain SM24dg) of the same substance?
Its MIC is 1.0%.

What about the MIC (S.mutans; strain SM28B) of the same substance?
Its MIC is 1.0%.

What about the MIC (S.mutans; strain SM44A) of the same substance?
The MIC was 0.5%.

And the MIC (S.mutans; strain SM84C)?
Its MIC is 1.0%.

And the MIC (S.mutans; strain SM148dg)?
Its MIC is 0.5%.

And the MIC (S.mutans; strain SM189)?
Its MIC is 0.5%.

And the MIC (S.mutans; strain SM211)?
The MIC was 0.25%.

And the MIC (S.mutans; strain SM6715)?
The MIC was 0.5%.

What about the MIC (S.mutans; strain SM10449) of the same substance?
The MIC was 0.25%.

What about the MIC (S.mutans; strain SMNW1) of the same substance?
Its MIC is 1.0%.

What about the MIC (S.mutans; strain SMNW6) of the same substance?
The MIC was 1.0%.

And the MIC (S.mutans; strain SMNW10)?
The MIC was 0.5%.

And the “ability to kill the pathogenic yeast C. albicans” value (C. albicans)?
The value was “most effective”.

And the MIC (Lactobacilli; strain SB9 (L.casei))?
The MIC was 1.0%.

And the MIC (Lactobacilli; strain SB81)?
Its MIC is 0.125%.

What about the MIC (Lactobacilli; strain SB82 (L.plantarum)) of the same substance?
The MIC was 0.125%.

What about the MIC (Lactobacilli; strain SB116 (L.casei var. rhamnosus)) of the same substance?
The MIC was 1.5%.

And the MIC (Candida; strain 41)?
The MIC was over 1.0%.

What about the MIC (Candida; strain 83) of the same substance?
Its MIC is over 1.0%.
